Measured values taken from ChEMBL document CHEMBL1201862, “PubChem BioAssay data set” (2004).
Where “and” joins values, the source holds several entries; their conditions need not be identical. Identical values can stand only once.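 A five-concentration, 48-hour dose response in 96-well plates underlies each endpoint, interpolated linearly between surrounding concentrations. Here, GI50 denotes the concentration required for 50% inhibition of growth.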 Calls of active or inactive are those of the source. Rule as the data show it: active = GI50 up to about 1.1 µM and inactive = higher.

Experiments:
Test in all cases: inhibition of tumour cell growth, NCI panel, 48 h
[1] = test system: OVCAR-4
[2] = test system: HL-60
[3] = test system: BT-549
[4] = test system: RPMI-8226
[5] = test system: MOLT-4
[6] = test system: TK-10
[7] = test system: SW-620
[8] = test system: K562
[9] = test system: EKVX
[10] = test system: SF-539
[11] = test system: MDA-MB-435
[12] = test system: HCC 2998
[13] = test system: OVCAR-5
[14] = test system: HT-29
[15] = test system: UACC-257
[16] = test system: Hs-578T
[17] = test system: KM12
[18] = test system: NCI-H522
[19] = test system: T47D
[20] = test system: SK-MEL-2

Measured: GI50

CC(C)(C)OC(=O)NC(Cc1ccc(O)cn1)C(=O)O (stereo unspecified)
inactive: [1] > 100 µM | [2] > 100 µM | [3] > 100 µM | [4] > 100 µM | [5] > 100 µM | [6] > 100 µM | [7] > 100 µM | [8] > 100 µM | [9] > 100 µM | [10] > 100 µM | [11] > 100 µM | [12] > 100 µM | [13] > 100 µM | [14] > 100 µM | [15] > 100 µM | [16] > 100 µM | [17] > 100 µM | [18] > 100 µM

c1ccc(C(CCN2CC3CCC(CC3)C2)c2ccccc2)cc1
inactive: [1] 38.7 µM | [3] 42.2 µM | [4] 16.8 µM | [19] 20 µM | [5] 18.2 µM | [6] 23.1 µM | [7] 29.9 µM | [8] 18.4 µM | [9] 37.8 µM | [10] 16 µM | [11] 25.1 µM | [13] 20.1 µM | [14] 13.9 µM | [15] 16.2 µM | [20] 20.5 µM | [16] 24 µM | [17] 23.9 µM | [18] 16.6 µM

CC(=O)Oc1ccc2cc(Oc3cc(Cl)c(Cl)cc3Cl)c(=O)oc2c1
inactive: [1] 34.5 µM | [2] 22.7 µM | [3] 13.1 µM | [19] 27.2 µM | [5] 11.9 µM | [6] 24.8 µM | [7] 14.8 µM | [8] 13.2 µM | [9] 24.4 µM | [10] 16 µM | [12] 17.1 µM | [13] 18.5 µM | [14] 16.8 µM | [15] 20.6 µM | [16] 22.2 µM | [17] 13 µM | [18] 16.7 µM

NCCCN1CCN(c2ccccc2)CC1
inactive: [1] > 100 µM | [3] > 100 µM | [4] > 100 µM | [19] > 100 µM | [5] 79.3 µM | [6] > 100 µM | [8] > 100 µM | [9] > 100 µM | [11] 51.2 µM | [13] > 100 µM | [14] 95.1 µM | [15] > 100 µM | [20] > 100 µM | [16] > 100 µM | [17] > 100 µM | [18] 73.6 µM

c1ccc2c(-c3csc(-c4c[nH]c5ccccc45)n3)c[nH]c2c1
inactive: [1] > 100 µM | [2] 14.4 µM | [3] > 100 µM | [5] 4.86 µM | [6] 63.8 µM | [7] > 100 µM | [8] 3.37 µM | [9] > 100 µM | [10] > 100 µM | [11] 35.8 µM | [12] > 100 µM | [13] > 51.9 µM | [14] 39.4 µM | [15] > 100 µM | [20] > 100 µM | [16] 61.1 µM | [17] 14.9 µM

COc1ccc(/C=C2/N/C(=N\N=C/C(O)C(O)C(O)CO)NC2=O)cc1 (stereo unspecified)
inactive: [2] > 100 µM | [3] 55.8 µM and 28 µM | [4] > 100 µM | [5] 88.1 µM | [6] > 100 µM | [7] > 100 µM and 77.8 µM | [9] > 100 µM | [10] 18 µM | [11] > 100 µM and 74.1 µM | [12] 58.5 µM | [13] > 100 µM | [14] > 100 µM and 63.7 µM | [15] > 100 µM | [20] > 100 µM | [16] 78.2 µM
